Assay results reported in patent publication US4576946A, “Derivatives of 4-methyl 6-phenyl pyridazine active on the central nervous system” (Sanofi, priority 1981, dated 1986).
Where a name gives a salt, the structure may show the parent alone.

What was measured:
[1] = system: striatal dopaminergic receptors; assay: Dopaminomimetic activity (rotations after unilateral lesion of nigrostriatal dopaminergic neurones); assay type: in vivo, mouse; conditions: 5.3 μmoles/kg i.p.
Description: The dopaminomimetic activity of the products of the invention was studied on the striatal dopaminergic receptors of the mouse according to the technique described by P. PROTAIS and J. COSTENTIN, Journal de Pharmacologie (Paris), 7, 251-255 (1976).
The unilateral lesion of the nigrostriatal dopaminergic neurones induces a hypersensitivity of the receptors of the dopamine at the level of the striatum.
After administration of the products to be studied by the intraperitoneal route, the number of rotations made by the animal is counted for a period of 2 minutes.
The results are expressed in the form of percentage of the variations with respect to the controls not having received the product to be studied.

[2] = Acute toxicity (LD50, 24 hours, intraperitoneal); conditions: mouse, in vivo, ip
Protocol: (§1) The products to be studied were administered by the intraperitoneal route in increasing doses to batches of 10 mice. The mortality provoked by the products studied was noted during the 24 hours following administration of the product.
From the results obtained, the lethal dose 50, i.e. the dose provoking the death of 50% of the animals studied, is determined for each of the products studied.

mice = assay: Convulsivant threshold dose (same experiments as acute toxicity); assay type: in vivo, mouse
Protocol: as §1
During the same experiments, the convulsivant threshold dose of the product is also noted, i.e. the minimum dose for which a convulsivant activity begins to show.

[3] = system: ptosis induced by reserpine; assay: Antagonism of the ptosis induced by reserpine; assay type: in vivo, female mouse CDI (Charles River); conditions: reserpine 2 mg/kg i.v., 1 hour; for ED50: Mus musculus, ip
Protocol: This test, described by GOURET (Journal de Pharmacologie (Paris), 1973, 4(1), 105-128), was carried out on the female mouse CDI (Charles River) weighing 20±1 g. The reserpine provokes a ptosis one hour after intravenous administration thereof; certain antidepressants oppose this ptosis.
The substances to be studied were administered by the i.p. route. The reserpine is administered simultaneously by the intravenous route at the dose of 2 mg/kg. One hour after administration of the reserpine, the number of animals not presenting ptosis is noted.
This test was carried out on batches of 10 mice, the results are expressed in percentage of animals not presenting ptosis and are the average of at least two experiments.

[4] = system: despair reaction (duration of immobilisation); assay: Despair reaction ("Behavioral Despair"); assay type: in vivo, female mouse, CDI (Charles River); conditions: 10 mg/kg i.p., 1 hour before test; immobile time between 2nd and 6th minute
Protocol: This test was carried out on the female mouse, CDI (Charles River), weighing 18 to 23 g, according to the method described by Porsolt (Archives Internationales de Pharmacodynamie, 1977, 229, 327-336). The principle of this test is as follows: when a mouse is placed in a narrow recipient filled with water, it struggles, then, after 2 to 4 mins., it becomes still and floats on its stomach, its back rounded, its rear paws drawn up under its body and it makes only a few movements necessary for holding its head out of the water. This is the so-called despair reaction. Certain psychotherapeutic agents, particularly antidepressants, extend the time during which the mouse struggles. The products to be studied were administered by the i.p. route 1 hour before the test. For the test, the animals are placed in a narrow recipient (10×10×10 cm) filled with water up to a height of 6 cm, the temperature of the water being 24° C.±2° C. The animals are left 6 minutes in the water and the time when the animal remains immobile between the 2nd and the 6th minute is measured--the shorter this time, the more the substance is active. Each substance was studied on a batch of 10 mice. The results are the average of at least two experiments.

[5] = cited from earlier work
[6] = mice, mortality during 24 hours

SMILES	Average number of ipsilateral rotations in 2 minutes, % with respect to controls [1] [%]	LD50 at 24 h [2, 6] [mg/kg]	Convulsivant threshold dose (mice; mouse, in vivo, ip) [mg/kg]	LD50 at 24 h [2] [mg/kg]	ED50 [3] [mg/kg]	further results
COc1ccc(-c2cc(C)c(NCCN3CCOCC3)nn2)cc1 [CM 30073, reference compound]	0	19				Convulsivant threshold dose (mice; i.p., mice, minimum dose for which a convulsivant activity begins to show): 5 mg/kg; Antagonism of the ptosis induced by reserpine (percentage of animals not presenting ptosis) ([3]; 1 mg/kg i.p.): 30%; Antagonism of the ptosis induced by reserpine (percentage of animals not presenting ptosis) ([3]; 5 mg/kg i.p.): 60%
CCN(CCO)CCNc1nnc(-c2ccccc2)cc1C [SR 95084, 3-{2-[N-ethyl(2-hydroxyethylamino)]ethylamino}4-methyl 6-phenyl pyridazine]		100 to 200	200			
Br.Br.Cc1cc(-c2ccc(O)cc2)nnc1NCCN1CCOCC1 [CM 30366, 3-(2-MORPHOLINO ETHYLAMINO)4-METHYL 6-(4-HYDROXY PHENYL)PYRIDAZINE DIHYDROBROMIDE]	-111		200	> 200	12	"Behavioral Despair" % of reduction of the duration of immobilisation [4]: -31%
Cc1cc(-c2ccccc2)nnc1N [CM 30465, 3-AMINO 4-METHYL 6-PHENYL PYRIDAZINE(HYDROCHLORIDE)]	-89		200	226	8.6	"Behavioral Despair" % of reduction of the duration of immobilisation [4]: -24%
Cc1cc(-c2cccc(O)c2)nnc1NCCN1CCOCC1 [SR 95082, 3-(2-morpholinoethylamino)4-methyl 6-(3-hydroxyphenyl)pyridazine]		> 200	> 200			
Cc1cc(-c2ccccc2)nnc1NCCNCCO [CM 30311, 3-[2-(2-HYDROXY ETHYLAMINO)ETHYLAMINO]4-METHYL 6-PHENYL PYRIDAZINE, DIHYDROCHLORIDE]	-146		200	> 200		
Cc1cc(-c2ccccc2)nnc1NCCN1CCOCC1=O [CM 30488, 3-[2-(3-OXO 4-MORPHOLINYL)ETHYLAMINO]4-METHYL 6-PHENYL PYRIDAZINE, HYDROCHLORIDE]	-90		300	> 300	20	
Cc1cc(-c2ccc(O)cc2)nnc1N [SR 95087, 3-amino 4-methyl 6-(4-hydroxyphenyl)pyridazine]		> 200	> 200			
Cc1cc(-c2ccccc2)nnc1NCCN1CCOC(=O)C1 [CM 30489, 3-[2-(2-OXO 4-MORPHOLINYL)ETHYLAMINO]4-METHYL 6-PHENYL PYRIDAZINE, DIHYDROCHLORIDE]	-97					
Cc1cc(-c2ccccc2)nnc1NCC[N+]1([O-])CCOCC1 [SR 30490, N-OXIDE of 3-(2-MORPHOLINO ETHYLAMINO 4-METHYL 6-PHENYL PYRIDAZINE]			300	> 200	~50	
Cc1cc(-c2ccccc2O)nnc1NCCN1CCOCC1 [SR 95070, 3-(2-morpholinoethylamino)4-methyl 6-(2-hydroxyphenyl)pyridazine]	-89	> 200	200			
Cc1cc(-c2ccccc2)nnc1NCCN1CCOCC1 [Minaprine, reference compound]	-91		35		5	"Behavioral Despair" % of reduction of the duration of immobilisation [4]: -35%; type of psychotherapeutic action ([5]; in vivo): "disinhibitory" activity; dose above which convulsivant ([5]; per os): higher than 100 mg/kg
